In the supplement of paper PMC10307832:

Columns and labels:
Assay in all cases: relative viability (nuclei count vs DMSO), 5 days (fraction); higher = more cells survive
[1] = compound: CC1=CC(=CC=C1)NC2=NC(=CS2)C3=CC=NC=C3 + Nc1ncn([C@H]2C[C@H](O)[C@@H](CO)O2)c(=O)n1 [Decitabine] (partner 2 µM)
Outline: (§1)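 Dosing by pin tool came one day after lung cancer cell lines were seeded in 1536-well plates, using either one drug or a fixed anchor-drug dose plus five library-drug doses (not always all listed) in √10 steps. After 5 days, nuclei were counted on 4× images. Relative viability is treated-well nuclei count divided by vehicle-well nuclei count, and values are medians of duplicate plates.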

[2] = compound: CC1=CC(=CC=C1)NC2=NC(=CS2)C3=CC=NC=C3 + CC(=O)Nc1cccc(-n2c(=O)n(C3CC3)c(=O)c3c(Nc4ccc(I)cc4F)n(C)c(=O)c(C)c32)c1 [Trametinib] (partner 0.02 µM)
Outline: as §1

Masitinib + Navitoclax = compound: Cc1ccc(NC(=O)c2ccc(CN3CCN(C)CC3)cc2)cc1Nc1nc(-c2cccnc2)cs1 [Masitinib] + CC1(C)CCC(c2ccc(Cl)cc2)=C(CN2CCN(c3ccc(C(=O)NS(=O)(=O)c4ccc(N[C@H](CCN5CCOCC5)CSc5ccccc5)c(S(=O)(=O)C(F)(F)F)c4)cc3)CC2)C1 [Navitoclax] (partner 0.5 µM)
Outline: as §1

[3] = compound: CC1=CC(=CC=C1)NC2=NC(=CS2)C3=CC=NC=C3 + N=C(N)NC(=N)NCCc1ccccc1 [Phenformin] (partner 250 µM)
Outline: as §1

| Cell Line | relative viability ([1]; first compound 0.08 µM) | relative viability ([1]; first compound 0.253 µM) | relative viability ([1]; first compound 0.8 µM) | relative viability ([1]; first compound 2.53 µM) | relative viability ([1]; first compound 8 µM) | relative viability ([2]; first compound 0.08 µM) | relative viability ([2]; first compound 0.253 µM) | relative viability ([2]; first compound 0.8 µM) | relative viability ([2]; first compound 2.53 µM) | relative viability ([2]; first compound 8 µM) | relative viability (Masitinib + Navitoclax; first compound 0.01 µM) | relative viability (Masitinib + Navitoclax; first compound 0.03162 µM) | relative viability (Masitinib + Navitoclax; first compound 0.1 µM) | relative viability (Masitinib + Navitoclax; first compound 0.3162 µM) | relative viability (Masitinib + Navitoclax; first compound 1 µM) | relative viability ([3]; first compound 0.08 µM) | relative viability ([3]; first compound 0.253 µM) | relative viability ([3]; first compound 0.8 µM) | relative viability ([3]; first compound 2.53 µM) | relative viability ([3]; first compound 8 µM) |
| --- | --- | --- | --- | --- | --- | --- | --- | --- | --- | --- | --- | --- | --- | --- | --- | --- | --- | --- | --- | --- |
| NCI-H1355 | 0.347 | 0.311 | 0.351 | 0.318 | 0.356 | 0.388 | 0.298 | 0.275 | 0.294 | 0.269 | 0.956 | 0.842 | 1 | 0.754 | 0.946 | 0.343 | 0.376 | 0.391 | 0.429 | 0.362 |
| NCI-H2405 | 0.694 | 0.678 | 0.686 |  | 0.671 | 0.566 | 0.571 | 0.591 |  | 0.552 | 0.874 | 1.01 | 1.07 | 0.731 | 0.825 | 0.344 | 0.352 | 0.347 | 0.411 | 0.434 |
| NCI-H2009 | 0.342 | 0.425 | 0.385 | 0.411 | 0.376 | 0.249 | 0.271 | 0.265 | 0.267 | 0.278 | 1.16 | 1.12 | 1.16 | 1.17 | 1.13 | 0.449 | 0.482 | 0.46 | 0.51 | 0.347 |
| NCI-H441 | 0.266 | 0.263 | 0.302 | 0.226 | 0.243 | 0.363 | 0.418 | 0.623 | 0.348 | 0.349 | 0.782 | 0.78 | 0.522 | 0.749 | 0.602 | 0.8 | 0.782 | 0.892 | 0.823 | 0.78 |
| PC-14 | 0.174 | 0.186 | 0.187 | 0.177 | 0.217 | 0.591 | 0.747 | 0.629 | 0.647 | 0.36 | 1.05 | 0.89 | 0.991 | 1.04 | 0.937 | 0.47 | 0.457 | 0.601 | 0.521 | 0.502 |
| HARA | 0.508 | 0.438 | 0.539 | 0.48 | 0.664 | 0.561 | 0.742 | 0.734 | 0.447 | 0.629 | 1.16 | 1.06 | 1.2 | 1.2 | 1.19 | 0.338 | 0.476 | 0.413 | 0.427 | 0.347 |
| NCI-H2126 | 0.525 | 0.56 | 0.559 | 0.572 | 0.578 | 0.509 | 0.528 | 0.426 | 0.476 | 0.485 | 0.761 | 0.807 | 0.842 | 0.823 | 0.798 | 0.466 | 0.439 | 0.523 | 0.498 | 0.523 |
| NCI-H1915 | 0.244 | 0.277 | 0.262 | 0.276 | 0.261 | 0.308 | 0.29 | 0.27 | 0.266 | 0.27 |  | 0.755 | 0.717 | 0.737 | 0.777 | 0.38 | 0.352 | 0.371 | 0.372 | 0.372 |
